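Five compound concentrations were applied to cells in 96-well plates for 48 hours; endpoints were derived by simple linear interpolation of the resulting dose-response curve. GI50 = concentration required for 50% inhibition of growth. TGI denotes the concentration required for complete inhibition of growth.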
Assays:
Test in all cases: DTP human tumour cell line panel, 48 h
786-0 renal = tested on: 786-0 renal
A498 renal = tested on: A498 renal
A549 NSCLC = tested on: A549 NSCLC
ACHN renal = tested on: ACHN renal
BT-549 breast = tested on: BT-549 breast
CAKI-1 renal = tested on: CAKI-1 renal
CCRF-CEM leukemia = tested on: CCRF-CEM leukemia
COLO 205 colon = tested on: COLO 205 colon
DU-145 prostate = tested on: DU-145 prostate
EKVX NSCLC = tested on: EKVX NSCLC
HCC-2998 colon = tested on: HCC-2998 colon
HCT-116 colon = tested on: HCT-116 colon
HCT-15 colon = tested on: HCT-15 colon
HL-60(TB) leukemia = tested on: HL-60(TB) leukemia
HOP-62 NSCLC = tested on: HOP-62 NSCLC
HOP-92 NSCLC = tested on: HOP-92 NSCLC
HS 578T breast = tested on: HS 578T breast
HT29 colon = tested on: HT29 colon
IGROV1 ovarian = tested on: IGROV1 ovarian
K-562 leukemia = tested on: K-562 leukemia
KM12 colon = tested on: KM12 colon
LOX IMVI melanoma = tested on: LOX IMVI melanoma
M14 melanoma = tested on: M14 melanoma
MALME-3M melanoma = tested on: MALME-3M melanoma
MCF7 breast = tested on: MCF7 breast
MDA-MB-231 breast = tested on: MDA-MB-231 breast
MDA-MB-435 = tested on: MDA-MB-435
MDA-MB-468 breast = tested on: MDA-MB-468 breast
MOLT-4 leukemia = tested on: MOLT-4 leukemia
NCI-H226 lung = tested on: NCI-H226 lung
NCI-H23 lung = tested on: NCI-H23 lung
NCI-H460 lung = tested on: NCI-H460 lung
NCI-H522 lung = tested on: NCI-H522 lung
NCI/ADR-RES ovarian = tested on: NCI/ADR-RES ovarian
OVCAR-3 ovarian = tested on: OVCAR-3 ovarian
OVCAR-4 ovarian = tested on: OVCAR-4 ovarian
OVCAR-5 ovarian = tested on: OVCAR-5 ovarian
OVCAR-8 ovarian = tested on: OVCAR-8 ovarian
PC-3 prostate = tested on: PC-3 prostate
RPMI-8226 leukemia = tested on: RPMI-8226 leukemia
RXF 393 renal = tested on: RXF 393 renal
SF-268 CNS = tested on: SF-268 CNS
SF-295 CNS = tested on: SF-295 CNS
SF-539 CNS = tested on: SF-539 CNS
SK-MEL-2 melanoma = tested on: SK-MEL-2 melanoma
SK-MEL-28 melanoma = tested on: SK-MEL-28 melanoma
SK-MEL-5 melanoma = tested on: SK-MEL-5 melanoma
SK-OV-3 ovarian = tested on: SK-OV-3 ovarian
SN12C renal = tested on: SN12C renal
SNB-19 CNS = tested on: SNB-19 CNS
SNB-75 CNS = tested on: SNB-75 CNS
SR leukemia = tested on: SR leukemia
SW-620 colon = tested on: SW-620 colon
T-47D breast = tested on: T-47D breast
TK-10 renal = tested on: TK-10 renal
U251 CNS = tested on: U251 CNS
UACC-257 melanoma = tested on: UACC-257 melanoma
UACC-62 melanoma = tested on: UACC-62 melanoma
UO-31 renal = tested on: UO-31 renal

Compound: CC/C(=C(\c1ccc(O)cc1)c1ccc(OCCN(C)C(=O)COCCNC(=O)Cc2ccc3c(c2)CN([C@@H]2CCC(=O)NC2=O)C3=O)cc1)c1ccccc1
- GI50 (786-0 renal): 51.7 µM
- TGI (786-0 renal): > 100 µM
- GI50 (A498 renal): 38.6 µM
- TGI (A498 renal): > 100 µM
- GI50 (A549 NSCLC): 46.2 µM
- TGI (A549 NSCLC): > 100 µM
- GI50 (ACHN renal): > 100 µM
- TGI (ACHN renal): > 100 µM
- GI50 (BT-549 breast): 0.15 µM
- TGI (BT-549 breast): 0.743 µM
- GI50 (CAKI-1 renal): 55.1 µM
- TGI (CAKI-1 renal): > 100 µM
- GI50 (CCRF-CEM leukemia): 0.995 µM
- GI50 (COLO 205 colon): 2.11 µM
- TGI (COLO 205 colon): 33.3 µM
- GI50 (DU-145 prostate): > 100 µM
- TGI (DU-145 prostate): > 100 µM
- GI50 (EKVX NSCLC): > 47 µM
- TGI (EKVX NSCLC): > 100 µM
- GI50 (HCC-2998 colon): 1.7 µM
- TGI (HCC-2998 colon): > 82.3 µM
- GI50 (HCT-116 colon): > 85.7 µM
- TGI (HCT-116 colon): > 100 µM
- GI50 (HCT-15 colon): > 88.1 µM
- TGI (HCT-15 colon): > 100 µM
- GI50 (HL-60(TB) leukemia): 0.0309 µM
- TGI (HL-60(TB) leukemia): 0.659 µM
- GI50 (HOP-62 NSCLC): 2.28 µM
- TGI (HOP-62 NSCLC): 19.1 µM
- GI50 (HOP-92 NSCLC): 0.177 µM
- TGI (HOP-92 NSCLC): 3.05 µM
- GI50 (HS 578T breast): 0.672 µM
- TGI (HS 578T breast): 11.8 µM
- GI50 (HT29 colon): > 57.6 µM
- TGI (HT29 colon): > 100 µM
- GI50 (IGROV1 ovarian): 0.433 µM
- TGI (IGROV1 ovarian): > 100 µM
- GI50 (K-562 leukemia): 16 µM
- TGI (K-562 leukemia): > 100 µM
- GI50 (KM12 colon): 8.5 µM
- TGI (KM12 colon): > 100 µM
- GI50 (LOX IMVI melanoma): > 84.5 µM
- TGI (LOX IMVI melanoma): > 100 µM
- GI50 (M14 melanoma): 30.8 µM
- TGI (M14 melanoma): > 100 µM
- GI50 (MALME-3M melanoma): 0.306 µM
- TGI (MALME-3M melanoma): 2.49 µM
- GI50 (MCF7 breast): 0.104 µM
- TGI (MCF7 breast): > 100 µM
- GI50 (MDA-MB-231 breast): 0.142 µM
- TGI (MDA-MB-231 breast): 0.801 µM
- GI50 (MDA-MB-435): 17.8 µM
- TGI (MDA-MB-435): > 100 µM
- GI50 (MDA-MB-468 breast): 0.0374 µM
- TGI (MDA-MB-468 breast): 0.266 µM
- GI50 (MOLT-4 leukemia): 0.0517 µM
- TGI (MOLT-4 leukemia): 1.1 µM
- GI50 (NCI-H226 lung): 2.35 µM
- TGI (NCI-H226 lung): > 26.7 µM
- GI50 (NCI-H23 lung): > 93.6 µM
- TGI (NCI-H23 lung): > 100 µM
- GI50 (NCI-H460 lung): > 100 µM
- TGI (NCI-H460 lung): > 100 µM
- GI50 (NCI-H522 lung): > 21.6 µM
- TGI (NCI-H522 lung): > 100 µM
- GI50 (NCI/ADR-RES ovarian): > 100 µM
- TGI (NCI/ADR-RES ovarian): > 100 µM
- GI50 (OVCAR-3 ovarian): 15.2 µM
- TGI (OVCAR-3 ovarian): > 100 µM
- GI50 (OVCAR-4 ovarian): 11.2 µM
- TGI (OVCAR-4 ovarian): > 100 µM
- GI50 (OVCAR-5 ovarian): > 57.6 µM
- TGI (OVCAR-5 ovarian): > 100 µM
- GI50 (OVCAR-8 ovarian): 1.56 µM
- TGI (OVCAR-8 ovarian): 33.4 µM
- GI50 (PC-3 prostate): 0.703 µM
- TGI (PC-3 prostate): > 100 µM
- GI50 (RPMI-8226 leukemia): 5.07 µM
- TGI (RPMI-8226 leukemia): > 100 µM
- GI50 (RXF 393 renal): 4.19 µM
- TGI (RXF 393 renal): 72.8 µM
- GI50 (SF-268 CNS): 5.38 µM
- TGI (SF-268 CNS): > 100 µM
- GI50 (SF-295 CNS): > 100 µM
- TGI (SF-295 CNS): > 100 µM
- GI50 (SF-539 CNS): > 62.6 µM
- TGI (SF-539 CNS): > 100 µM
- GI50 (SK-MEL-2 melanoma): 6.14 µM
- TGI (SK-MEL-2 melanoma): > 91.8 µM
- GI50 (SK-MEL-28 melanoma): 21.6 µM
- TGI (SK-MEL-28 melanoma): > 100 µM
- GI50 (SK-MEL-5 melanoma): 6.78 µM
- TGI (SK-MEL-5 melanoma): 73.9 µM
- GI50 (SK-OV-3 ovarian): 10.7 µM
- TGI (SK-OV-3 ovarian): > 100 µM
- GI50 (SN12C renal): 2.27 µM
- TGI (SN12C renal): > 93 µM
- GI50 (SNB-19 CNS): 1.83 µM
- TGI (SNB-19 CNS): > 100 µM
- GI50 (SNB-75 CNS): 0.316 µM
- TGI (SNB-75 CNS): > 94.8 µM
- GI50 (SR leukemia): 13.5 µM
- TGI (SR leukemia): > 74 µM
- GI50 (SW-620 colon): 1.9 µM
- TGI (SW-620 colon): > 100 µM
- GI50 (T-47D breast): 0.0259 µM
- TGI (T-47D breast): 4.61 µM
- GI50 (TK-10 renal): > 100 µM
- TGI (TK-10 renal): > 100 µM
- GI50 (U251 CNS): > 74.9 µM
- TGI (U251 CNS): > 100 µM
- GI50 (UACC-257 melanoma): > 100 µM
- TGI (UACC-257 melanoma): > 100 µM
- GI50 (UACC-62 melanoma): 54.2 µM
- TGI (UACC-62 melanoma): > 100 µM
- GI50 (UO-31 renal): > 100 µM
- TGI (UO-31 renal): > 100 µM
